In brackets after ≈: the same amount, converted by molar mass. Like-named read-outs stand apart in the source and are kept apart here. Numbered stars: 1 amine (or outer) side, 2 acyl side, 3 side chain; on linkers, the order of the positions; unused ones are H or OH. Bridge positions count the residues as written; N and C are the ends. Square brackets hold non-standard residues; d marks the D form. Peptide text beside a SMILES is read from it. * marks the point of attachment. ξ: configuration not given here. X17 = CCCCCCN([C@@H](CCN)C(=O)[*:2])[*:1]; X26 = NCC[C@H](OCC1CCCCC1)C(=O)*; dCha = N[C@H](CC1CCCCC1)C(=O)O; Thr(3ξ) = CC(O)[C@H](N)C(=O)O; X25 = CCCCO[C@@H](CCN)C(=O)*; X19 = NCCC(C(=O)*)C1CCCCC1; Dab = NCC[C@H](N)C(=O)O; Dap = NC[C@H](N)C(=O)O
What was measured:
Type in all cases: cell-based
Pseudomonas aeruginosa = test system: Pseudomonas aeruginosa
Protocol: (§1) To evaluate the potency and spectrum of the compounds, susceptibility testing was performed against up to nine strains of each of the Gram negative pathogens, Escherichia coli, Pseudomonas aeruginosa, Klebsiella pneumoniae and Acinetobacter baumannii.
(§2) The values in Table 2 are MIC (μg/mL) against strains of E. coli, K. pneumoniae, P. aeruginosa and A. baumanii, including strains which show elevated MICs to Polymyxin.
(§3) The values in Table 2A are MIC (μg/mL).
(§4) The in vitro activity of compounds 26 and C7 (FADDI-02) against resistant bacterial strains was compared. The resistant strains included including Escherichia coli, Pseudomonas aeruginosa, Klebsiella pneumoniae and Acinetobacter baumannii strains. The data is provided in Table 2C, where the strains are identified. The values in Table 2 are MIC (μg/mL).

Acinetobacter baumannii = test system: Acinetobacter baumannii
Protocol: as §1, §2, §3, §4

Escherichia coli = test system: Escherichia coli
Protocol: as §1, §2, §3, §4

Klebsiella pneumoniae = test system: Klebsiella pneumoniae
Protocol: as §1, §2, §3, §4

SMILES	MIC P. aeruginosa 068 (Pseudomonas aeruginosa)	MIC P. aeruginosa 070 (Pseudomonas aeruginosa)	MIC P. aeruginosa ATCC 27853 (Pseudomonas aeruginosa)	MIC P. aeruginosa CCUG 59347 (Pseudomonas aeruginosa)	MIC A. baumanii 053 (Acinetobacter baumannii)	MIC A. baumanii 056 (Acinetobacter baumannii)	MIC A. baumanii ATCC BAA-747 (Acinetobacter baumannii)	MIC A. baumanii NCTC 13424 (Acinetobacter baumannii)	MIC E. coli 058 (Escherichia coli)	MIC E. coli ATCC 25922 (Escherichia coli)	MIC K. pneumoniae 063 (Klebsiella pneumoniae)	MIC K. pneumoniae 065 (Klebsiella pneumoniae)	MIC K. pneumoniae ATCC 13882 (Klebsiella pneumoniae)	MIC E. coli 061 (Escherichia coli)	MIC E. coli NCTC 9001 (Escherichia coli)	also measured
CCCCO[C@@H](CCN)C(=O)N[C@H](C(=O)N[C@@H](CN)C(=O)N[C@H]1CCNC(=O)[C@H]([C@@H](C)O)NC(=O)[C@H](CCN)NC(=O)[C@H](CCN)NC(=O)[C@H](CC(C)C)NC(=O)[C@@H](CC2CCCCC2)NC(=O)[C@H](CCN)NC1=O)C(C)O (stereo partly drawn) [Example 46, (S)-4-amino-2-butoxybutanoyl L-Thr-L-Dap-polymyxin [D-cyclohexylalanine]-6 heptapeptide.] (X25-[Thr(3ξ)][Dap][Dab][Dab][dCha]L[Dab][Dab]T; lactam 3-C)	16 µg/mL (≈ 14.4 µM)	32 µg/mL (≈ 28.8 µM)	0.5 µg/mL (≈ 0.449 µM)	0.5 µg/mL (≈ 0.449 µM)	>64 µg/mL	>64 µg/mL	0.125 µg/mL (≈ 0.112 µM)	0.125 µg/mL (≈ 0.112 µM)	8 µg/mL (≈ 7.19 µM)	0.125 µg/mL (≈ 0.112 µM)	>64 µg/mL	2 µg/mL (≈ 1.8 µM)	0.25 µg/mL (≈ 0.225 µM)	–	–	–
CC(C)C[C@@H]1NC(=O)[C@@H](CC2CCCCC2)NC(=O)[C@H](CCN)NC(=O)[C@@H](NC(=O)[C@H](CCN)NC(=O)[C@@H](NC(=O)CC(CN)CC2CCCCC2)[C@@H](C)O)CCNC(=O)[C@H]([C@@H](C)O)NC(=O)[C@H](CCN)NC(=O)[C@H](CCN)NC1=O (single isomer, unassigned) [Example 72, 4-amino-3-(cyclohexylmethyl) butanoyl polymyxin [D-cyclohexylalanine]-6 nonapeptide]	–	–	–	–	–	–	–	–	–	–	–	–	–	–	–	MIC P. aeruginosa 068 (Pseudomonas aeruginosa; strain 068): 4 µg/mL (≈ 3.48 µM); MIC P. aeruginosa 070 (Pseudomonas aeruginosa; strain 070): 8 µg/mL (≈ 6.95 µM); MIC P. aeruginosa ATCC 27853 (Pseudomonas aeruginosa; strain ATCC 27853): 0.25 µg/mL (≈ 0.217 µM); MIC P. aeruginosa CCUG 59347 (Pseudomonas aeruginosa; strain CCUG 59347): 0.5 µg/mL (≈ 0.435 µM); MIC A. baumanii 053 (Acinetobacter baumannii; strain 053): 64 µg/mL (≈ 55.6 µM); MIC A. baumanii 056 (Acinetobacter baumannii; strain 056): 16 µg/mL (≈ 13.9 µM); MIC A. baumanii ATCC BAA-747 (Acinetobacter baumannii; strain ATCC BAA-747): 0.25 µg/mL (≈ 0.217 µM); MIC A. baumanii NCTC 13424 (Acinetobacter baumannii; strain NCTC 13424): 0.125 µg/mL (≈ 0.109 µM); MIC E. coli 058 (Escherichia coli; strain 058): 2 µg/mL (≈ 1.74 µM); MIC E. coli 061 (Escherichia coli; strain 061): 8 µg/mL (≈ 6.95 µM); MIC E. coli ATCC 25922 (Escherichia coli; strain ATCC 25922): 0.25 µg/mL (≈ 0.217 µM); MIC E. coli NCTC 9001 (Escherichia coli; strain NCTC 9001): 0.25 µg/mL (≈ 0.217 µM); MIC K. pneumoniae 063 (Klebsiella pneumoniae; strain 063): 8 µg/mL (≈ 6.95 µM); MIC K. pneumoniae 065 (Klebsiella pneumoniae; strain 065): 0.5 µg/mL (≈ 0.435 µM); MIC K. pneumoniae ATCC 13882 (Klebsiella pneumoniae; strain ATCC 13882): 0.25 µg/mL (≈ 0.217 µM)
CC(C)CC(CN)C(=O)N[C@H](C(=O)N[C@@H](CN)C(=O)N[C@H]1CCNC(=O)[C@H]([C@@H](C)O)NC(=O)[C@H](CCN)NC(=O)[C@H](CCN)NC(=O)[C@H](CC(C)C)NC(=O)[C@@H](Cc2ccc(Br)cc2)NC(=O)[C@H](CCN)NC1=O)C(C)O (single isomer, unassigned; isomer 1) [Example 13, 2-aminomethyl-4-methyl pentanoyl polymyxin L-Thr-L-Dap-polymyxin [D-(4-bromo Phe)]-6]heptapeptide. Isomer 1]	32 µg/mL (≈ 27.7 µM)	64 µg/mL (≈ 55.4 µM)	0.5 µg/mL (≈ 0.433 µM)	–	>64 µg/mL	>64 µg/mL	>8 µg/mL	–	32 µg/mL (≈ 27.7 µM)	1 µg/mL (≈ 0.866 µM)	>64 µg/mL	>64 µg/mL	–	>64 µg/mL	–	MIC E. coli 059 (Escherichia coli): 32 µg/mL (≈ 27.7 µM); MIC E. coli 060 (Escherichia coli): 32 µg/mL (≈ 27.7 µM); MIC K. pneumoniae 062 (Klebsiella pneumoniae): >64 µg/mL; MIC K. pneumoniae 064 (Klebsiella pneumoniae): >64 µg/mL; MIC K. pneumoniae 066 (Klebsiella pneumoniae): >64 µg/mL; MIC K. pneumoniae 067 (Klebsiella pneumoniae): >64 µg/mL; MIC K. pneumoniae ATCC 4352 (Klebsiella pneumoniae): 0.5 µg/mL (≈ 0.433 µM)
CC(C)C[C@@H]1NC(=O)[C@@H](CC2CCCCC2)NC(=O)[C@H](CCN)NC(=O)[C@@H](NC(=O)[C@H](CN)NC(=O)[C@@H](NC(=O)[C@H](CCN)OCC2CCCCC2)[C@@H](C)O)CCNC(=O)[C@H]([C@@H](C)O)NC(=O)[C@H](CCN)NC(=O)[C@H](CCN)NC1=O [Example 84, (S)-4-amino-2-(cyclohexyl-methoxy) butanoyl L-Thr-L-Dap-polymyxin [D-cyclohexylalanine-6]heptapeptide.] (X26-T[Dap][Dab][Dab][dCha]L[Dab][Dab]T; lactam 3-C)	–	8 µg/mL (≈ 6.94 µM)	0.25 µg/mL (≈ 0.217 µM)	0.5 µg/mL (≈ 0.434 µM)	>32 µg/mL	32 µg/mL (≈ 27.8 µM)	0.25 µg/mL (≈ 0.217 µM)	0.25 µg/mL (≈ 0.217 µM)	8 µg/mL (≈ 6.94 µM)	0.125 µg/mL (≈ 0.108 µM)	32 µg/mL (≈ 27.8 µM)	4 µg/mL (≈ 3.47 µM)	0.25 µg/mL (≈ 0.217 µM)	8 µg/mL (≈ 6.94 µM)	–	–
CC(C)C[C@@H]1NC(=O)[C@@H](CC2CCCCC2)NC(=O)[C@H](CCN)NC(=O)[C@@H](NC(=O)[C@H](CN)NC(=O)[C@@H](NC(=O)C(CCN)C2CCCCC2)[C@@H](C)O)CCNC(=O)[C@H]([C@@H](C)O)NC(=O)[C@H](CCN)NC(=O)[C@H](CCN)NC1=O (stereo partly drawn) [Example 85, 4-amino-2-cyclohexylbutanoyl L-Thr-L-Dap-polymyxin [D-cyclohexylalanine-6]heptapeptide.] (X19-T[Dap][Dab][Dab][dCha]L[Dab][Dab]T; lactam 3-C)	2 µg/mL (≈ 1.78 µM)	4 µg/mL (≈ 3.56 µM)	0.5 µg/mL (≈ 0.445 µM)	0.5 µg/mL (≈ 0.445 µM)	64 µg/mL (≈ 57 µM)	64 µg/mL (≈ 57 µM)	0.125 µg/mL (≈ 0.111 µM)	0.125 µg/mL (≈ 0.111 µM)	4 µg/mL (≈ 3.56 µM)	0.125 µg/mL (≈ 0.111 µM)	8 µg/mL (≈ 7.13 µM)	0.5 µg/mL (≈ 0.445 µM)	0.5 µg/mL (≈ 0.445 µM)	16 µg/mL (≈ 14.3 µM)	0.06 µg/mL (≈ 0.0535 µM)	–
CC(C)C[C@@H]1NC(=O)[C@@H](CC2CCCCC2)NC(=O)[C@H](CCN)NC(=O)[C@@H](NC(=O)[C@H](CN)NC(=O)[C@@H](NC(=O)C(CCN)Cc2ccccc2F)[C@@H](C)O)CCNC(=O)[C@H]([C@@H](C)O)NC(=O)[C@H](CCN)NC(=O)[C@H](CCN)NC1=O (single isomer, unassigned; isomer 2) [Example 65, 4-amino-2-(2-fluorobenzyl) butanoyl L-Thr-L-Dap-polymyxin [D-cyclohexylalanine]-6 heptapeptide. Isomer 2]	2 µg/mL (≈ 1.74 µM)	2 µg/mL (≈ 1.74 µM)	0.5 µg/mL (≈ 0.435 µM)	0.5 µg/mL (≈ 0.435 µM)	>64 µg/mL	>64 µg/mL	0.25 µg/mL (≈ 0.218 µM)	1 µg/mL (≈ 0.871 µM)	4 µg/mL (≈ 3.48 µM)	0.25 µg/mL (≈ 0.218 µM)	16 µg/mL (≈ 13.9 µM)	2 µg/mL (≈ 1.74 µM)	0.25 µg/mL (≈ 0.218 µM)	16 µg/mL (≈ 13.9 µM)	–	–

Second part, led by results:

MIC P. aeruginosa 068 (Pseudomonas aeruginosa)	MIC P. aeruginosa 070 (Pseudomonas aeruginosa)	MIC P. aeruginosa ATCC 27853 (Pseudomonas aeruginosa)	MIC P. aeruginosa CCUG 59347 (Pseudomonas aeruginosa)	MIC A. baumanii 053 (Acinetobacter baumannii)	MIC A. baumanii 056 (Acinetobacter baumannii)	MIC A. baumanii ATCC BAA-747 (Acinetobacter baumannii)	MIC A. baumanii NCTC 13424 (Acinetobacter baumannii)	MIC E. coli 058 (Escherichia coli)	MIC E. coli ATCC 25922 (Escherichia coli)	MIC K. pneumoniae 063 (Klebsiella pneumoniae)	MIC K. pneumoniae 065 (Klebsiella pneumoniae)	MIC K. pneumoniae ATCC 13882 (Klebsiella pneumoniae)	MIC E. coli 061 (Escherichia coli)	MIC E. coli NCTC 9001 (Escherichia coli)	SMILES	also measured
2 µg/mL (≈ 1.8 µM)	2 µg/mL (≈ 1.8 µM)	0.25 µg/mL (≈ 0.225 µM)	0.5 µg/mL (≈ 0.45 µM)	64 µg/mL (≈ 57.6 µM)	32 µg/mL (≈ 28.8 µM)	0.125 µg/mL (≈ 0.113 µM)	0.125 µg/mL (≈ 0.113 µM)	2 µg/mL (≈ 1.8 µM)	0.125 µg/mL (≈ 0.113 µM)	8 µg/mL (≈ 7.2 µM)	2 µg/mL (≈ 1.8 µM)	0.25 µg/mL (≈ 0.225 µM)	8 µg/mL (≈ 7.2 µM)	0.03 µg/mL (≈ 0.027 µM)	CC(C)CCC(CCN)C(=O)N[C@H](C(=O)N[C@@H](CN)C(=O)N[C@H]1CCNC(=O)[C@H]([C@@H](C)O)NC(=O)[C@H](CCN)NC(=O)[C@H](CCN)NC(=O)[C@H](CC(C)C)NC(=O)[C@@H](CC2CCCCC2)NC(=O)[C@H](CCN)NC1=O)[C@@H](C)O (single isomer, unassigned; isomer 2) [Example 80, 2-(2-aminoethyl)-5-methylhexanoyl L-Thr-L-Dap-polymyxin [D-cyclohexylalanine-6]heptapeptide. isomer 2]	MIC K. pneumoniae ATCC 4352 (Klebsiella pneumoniae): 0.06 µg/mL (≈ 0.054 µM)
2 µg/mL (≈ 1.76 µM)	2 µg/mL (≈ 1.76 µM)	0.25 µg/mL (≈ 0.219 µM)	0.25 µg/mL (≈ 0.219 µM)	64 µg/mL (≈ 56.2 µM)	64 µg/mL (≈ 56.2 µM)	0.5 µg/mL (≈ 0.439 µM)	0.25 µg/mL (≈ 0.219 µM)	2 µg/mL (≈ 1.76 µM)	0.5 µg/mL (≈ 0.439 µM)	32 µg/mL (≈ 28.1 µM)	2 µg/mL (≈ 1.76 µM)	0.5 µg/mL (≈ 0.439 µM)	16 µg/mL (≈ 14 µM)	0.125 µg/mL (≈ 0.11 µM)	CCCCCCN[C@@H](CCN)C(=O)N[C@H](C(=O)N[C@@H](CN)C(=O)N[C@H]1CCNC(=O)[C@H]([C@@H](C)O)NC(=O)[C@H](CCN)NC(=O)[C@H](CCN)NC(=O)[C@H](CC(C)C)NC(=O)[C@@H](CC2CCCCC2)NC(=O)[C@H](CCN)NC1=O)C(C)O (stereo partly drawn) [Example 49, (S)-4-amino-2-(hexylamino) butanoyl L-Thr-L-Dap-polymyxin [D-cyclohexylalanine]-6 heptapeptide.] (H-[X17][Thr(3ξ)][Dap][Dab][Dab][dCha]L[Dab][Dab]T; lactam 4-C)	–
